According to paper PMC11032351, “Epigenetic modulation through BET bromodomain inhibitors as a novel therapeutic strategy for progranulin-deficient frontotemporal dementia” (Scientific Reports, 2024):

What was measured:
[1] = system: lysosomal genes; assay: RNA sequencing of human dermal fibroblasts, lysosomal genes; assay type: cell-based; settings: 24 h
Description: Non-immortalized HDF cells (UCSF Memory and Aging Center, FTD25(X)) were cultured in high glucose DMEM with 10% FBS with supplemented L-glutamine and Pen/Strep, and grown in 100 mm plates for treatment. Cells were treated with DMSO or 1 μM mivebresib (1% DMSO) for 24 h. Trizol (Invitrogen) was used to isolate total cellular RNA, according to the manufacturer's protocol. RNA concentrations were assessed using a NanoDrop spectrophotometer (Thermo Scientific) and samples were diluted to 100 ng/10 μL in nuclease-free water (Ambion). 5 μg of each RNA sample was submitted for processing. Gene set enrichment analysis for lysosomal genes (list from Sardiello et al. 2009, Table S1) was performed using GSEA Desktop v3.0, with the following input parameters: number of permutations: 1000, scoring scheme: weighted, normalization mode: […], ranking metric: Signal2Noise, sorting: real[42]-[44]. […] Input queried against “Literature” library.

[2] = system: PGRN-Luc; assay: HMC3 PGRN-luciferase reporter assay; assay type: cell-based, human; settings: HMC3 PGRN-Luc cells, 8 h of treatment
Description: HMC3 PGRN-Luc cells were trypsinized from confluent T-75 flasks and re-suspended in HMC-3 media at 150,000–200,000 cells/mL. 30 µL of cell suspension was then seeded onto each well of black, 384-well clear-bottom plates (Corning 3712) using the Multidrop Combi (Thermo Fisher). Cells were allowed to adhere to plates in the incubator at 37 °C/5% CO2 for 6–8 h. After 6–8 h, compounds were added to each well using the D300e (Tecan) compound dispenser, and all wells were DMSO-normalized (0.3%). Cells were allowed to incubate with compounds for indicated timeframes.
Plates were removed from the incubator and allowed to cool to RT. 15 µL of media was removed from each well using a multichannel pipette and added to separate Corning 3712 plates for a read of “secreted” PGRN. To both the media-containing plates as well as the cell-containing plates (with 15 µL media remaining) is then added 15 µL of active luminescence reagent (Thermo 18,636) which was generated according to manufacturer’s instructions. Plates were allowed to nutate at RT for 15 min prior to reading using the EnVision (PerkinElmer). For calculation of the internal PGRN-Luc signal, the secreted signal (15 µL media) was subtracted from the signal of the cell-containing plates (with 15 µL media remaining). For “total” PGRN-Luc signal, a sample of media was not aliquoted into a separate plate, and instead, 30 µL of active luminescence reagent was added directly to each well.
For the mivebresib and panobinostat time-course experiment, the above procedure was followed, with the exception that cells were seeded at 66,600 cells/mL in 30 µL media, and allowed to grow overnight prior to compound addition for the indicated timeframes.

Structure (SMILES): CCS(=O)(=O)Nc1ccc(Oc2ccc(F)cc2F)c(-c2cn(C)c(=O)c3[nH]ccc23)c1 [mivebresib]
- lysosomal genes significantly upregulated ([1]; 1 µM, pre-defined list of lysosomal genes): 68/89
- Log2(fold-change) ABCA2 ([1]; gene ABCA2, 1 µM, vs DMSO): 0.969
- Log2(fold-change) ABCB9 ([1]; gene ABCB9, 1 µM, vs DMSO): 0.753
- Log2(fold-change) ACP2 ([1]; gene ACP2, 1 µM, vs DMSO): 0.071
- Log2(fold-change) ACP5 ([1]; gene ACP5, 1 µM, vs DMSO): 1.631
- Log2(fold-change) AGA ([1]; gene AGA, 1 µM, vs DMSO): 1.111
- Log2(fold-change) ARSA ([1]; gene ARSA, 1 µM, vs DMSO): 0.958
- Log2(fold-change) ARSB ([1]; gene ARSB, 1 µM, vs DMSO): 0.697
- Log2(fold-change) ARSG ([1]; gene ARSG, 1 µM, vs DMSO): 0.426
- Log2(fold-change) ASAH1 ([1]; gene ASAH1, 1 µM, vs DMSO): 1.724
- Log2(fold-change) CD63 ([1]; gene CD63, 1 µM, vs DMSO): 0.465
- Log2(fold-change) CD68 ([1]; gene CD68, 1 µM, vs DMSO): 0.237
- Log2(fold-change) CLCN7 ([1]; gene CLCN7, 1 µM, vs DMSO): 1.349
- Log2(fold-change) CLN3 ([1]; gene CLN3, 1 µM, vs DMSO): -0.112
- Log2(fold-change) CLN5 ([1]; gene CLN5, 1 µM, vs DMSO): 0.974
- Log2(fold-change) CPVL ([1]; gene CPVL, 1 µM, vs DMSO): 4.550
- Log2(fold-change) CREG1 ([1]; gene CREG1, 1 µM, vs DMSO): 1.959
- Log2(fold-change) CTBS ([1]; gene CTBS, 1 µM, vs DMSO): -0.006
- Log2(fold-change) CTNS ([1]; gene CTNS, 1 µM, vs DMSO): 1.077
- Log2(fold-change) CTSA ([1]; gene CTSA, 1 µM, vs DMSO): 1.344
- Log2(fold-change) CTSB ([1]; gene CTSB, 1 µM, vs DMSO): 0.947
- Log2(fold-change) CTSC ([1]; gene CTSC, 1 µM, vs DMSO): 0.179
- Log2(fold-change) CTSD ([1]; gene CTSD, 1 µM, vs DMSO): 1.383
- Log2(fold-change) CTSF ([1]; gene CTSF, 1 µM, vs DMSO): 1.580
- Log2(fold-change) CTSH ([1]; gene CTSH, 1 µM, vs DMSO): 2.652
- Log2(fold-change) CTSK ([1]; gene CTSK, 1 µM, vs DMSO): 2.602
- Log2(fold-change) CTSS ([1]; gene CTSS, 1 µM, vs DMSO): 1.574
- Log2(fold-change) CTSZ ([1]; gene CTSZ, 1 µM, vs DMSO): 0.095
- Log2(fold-change) DNASE2 ([1]; gene DNASE2, 1 µM, vs DMSO): 0.759
- Log2(fold-change) ENTPD4 ([1]; gene ENTPD4, 1 µM, vs DMSO): -0.066
- Log2(fold-change) EPDR1 ([1]; gene EPDR1, 1 µM, vs DMSO): 0.350
- Log2(fold-change) FUCA1 ([1]; gene FUCA1, 1 µM, vs DMSO): 2.294
- Log2(fold-change) GAA ([1]; gene GAA, 1 µM, vs DMSO): 1.285
- Log2(fold-change) GALC ([1]; gene GALC, 1 µM, vs DMSO): 0.272
- Log2(fold-change) GALNS ([1]; gene GALNS, 1 µM, vs DMSO): 0.664
- Log2(fold-change) GBA ([1]; gene GBA, 1 µM, vs DMSO): 0.975
- Log2(fold-change) GGH ([1]; gene GGH, 1 µM, vs DMSO): -0.787
- Log2(fold-change) GLA ([1]; gene GLA, 1 µM, vs DMSO): 0.381
- Log2(fold-change) GLB1 ([1]; gene GLB1, 1 µM, vs DMSO): 0.633
- Log2(fold-change) GM2A ([1]; gene GM2A, 1 µM, vs DMSO): 0.722
- Log2(fold-change) GNS ([1]; gene GNS, 1 µM, vs DMSO): 1.166
- Log2(fold-change) GUSB ([1]; gene GUSB, 1 µM, vs DMSO): -0.134
- Log2(fold-change) HEXA ([1]; gene HEXA, 1 µM, vs DMSO): 1.135
- Log2(fold-change) HEXB ([1]; gene HEXB, 1 µM, vs DMSO): 1.117
- Log2(fold-change) HGSNAT ([1]; gene HGSNAT, 1 µM, vs DMSO): 0.896
- Log2(fold-change) HPSE ([1]; gene HPSE, 1 µM, vs DMSO): 1.426
- Log2(fold-change) HYAL1 ([1]; gene HYAL1, 1 µM, vs DMSO): 0.217
- Log2(fold-change) HYAL2 ([1]; gene HYAL2, 1 µM, vs DMSO): -0.168
- Log2(fold-change) IDS ([1]; gene IDS, 1 µM, vs DMSO): 1.156
- Log2(fold-change) IDUA ([1]; gene IDUA, 1 µM, vs DMSO): 1.057
- Log2(fold-change) IFI30 ([1]; gene IFI30, 1 µM, vs DMSO): 1.145
- Log2(fold-change) LAMP1 ([1]; gene LAMP1, 1 µM, vs DMSO): 1.227
- Log2(fold-change) LAMP2 ([1]; gene LAMP2, 1 µM, vs DMSO): 1.082
- Log2(fold-change) LAPTM4A ([1]; gene LAPTM4A, 1 µM, vs DMSO): 0.460
- Log2(fold-change) LAPTM5 ([1]; gene LAPTM5, 1 µM, vs DMSO): 0.199
- Log2(fold-change) LGMN ([1]; gene LGMN, 1 µM, vs DMSO): 1.455
- Log2(fold-change) LIPA ([1]; gene LIPA, 1 µM, vs DMSO): 0.574
- Log2(fold-change) LITAF ([1]; gene LITAF, 1 µM, vs DMSO): 1.022
- Log2(fold-change) LMBRD1 ([1]; gene LMBRD1, 1 µM, vs DMSO): 0.119
- Log2(fold-change) MAN2B1 ([1]; gene MAN2B1, 1 µM, vs DMSO): 0.586
- Log2(fold-change) MAN2B2 ([1]; gene MAN2B2, 1 µM, vs DMSO): 0.870
- Log2(fold-change) MANBA ([1]; gene MANBA, 1 µM, vs DMSO): 1.687
- Log2(fold-change) MCOLN1 ([1]; gene MCOLN1, 1 µM, vs DMSO): 2.564
- Log2(fold-change) MFSD8 ([1]; gene MFSD8, 1 µM, vs DMSO): -0.317
- Log2(fold-change) MPO ([1]; gene MPO, 1 µM, vs DMSO): 1.298
- Log2(fold-change) NAAA ([1]; gene NAAA, 1 µM, vs DMSO): 0.334
- Log2(fold-change) NAGA ([1]; gene NAGA, 1 µM, vs DMSO): 0.034
- Log2(fold-change) NAGLU ([1]; gene NAGLU, 1 µM, vs DMSO): 0.982
- Log2(fold-change) NCSTN ([1]; gene NCSTN, 1 µM, vs DMSO): 0.166
- Log2(fold-change) NEU1 ([1]; gene NEU1, 1 µM, vs DMSO): 2.366
- Log2(fold-change) NEU4 ([1]; gene NEU4, 1 µM, vs DMSO): 1.289
- Log2(fold-change) NPC1 ([1]; gene NPC1, 1 µM, vs DMSO): 1.530
- Log2(fold-change) NPC2 ([1]; gene NPC2, 1 µM, vs DMSO): 1.822
- Log2(fold-change) OSTM1 ([1]; gene OSTM1, 1 µM, vs DMSO): 1.559
- Log2(fold-change) PCYOX1 ([1]; gene PCYOX1, 1 µM, vs DMSO): 0.963
- Log2(fold-change) PPT1 ([1]; gene PPT1, 1 µM, vs DMSO): -0.819
- Log2(fold-change) PPT2 ([1]; gene PPT2, 1 µM, vs DMSO): -0.987
- Log2(fold-change) PSAP ([1]; gene PSAP, 1 µM, vs DMSO): 1.511
- Log2(fold-change) RNASET2 ([1]; gene RNASET2, 1 µM, vs DMSO): 1.008
- Log2(fold-change) SCARB2 ([1]; gene SCARB2, 1 µM, vs DMSO): 0.201
- Log2(fold-change) SCPEP1 ([1]; gene SCPEP1, 1 µM, vs DMSO): 1.441
- Log2(fold-change) SGSH ([1]; gene SGSH, 1 µM, vs DMSO): 0.983
- Log2(fold-change) SIAE ([1]; gene SIAE, 1 µM, vs DMSO): 0.365
- Log2(fold-change) SLC17A5 ([1]; gene SLC17A5, 1 µM, vs DMSO): 1.220
- Log2(fold-change) SLC36A1 ([1]; gene SLC36A1, 1 µM, vs DMSO): 0.968
- Log2(fold-change) SMPD1 ([1]; gene SMPD1, 1 µM, vs DMSO): 0.723
- Log2(fold-change) TMEM74 ([1]; gene TMEM74, 1 µM, vs DMSO): 2.173
- Log2(fold-change) TMEM92 ([1]; gene TMEM92, 1 µM, vs DMSO): -1.444
- Log2(fold-change) TPP1 ([1]; gene TPP1, 1 µM, vs DMSO): 1.361
- total (combined internal and secreted) PGRN-Luc signal [2]: to the same extent as did panobinostat
